Patent US20140080787A1, “Method for the Treatment of Neuropathies Associated with Charcot-Marie-Tooth 1A (CMT1A) Disease” (National Institutes of Health, US Dept of Health and Human …, priority 2012, published 2014)

Assays:
PMP22 [1] = experiment: PMP22 expression in sciatic nerve of CMT1A rats, quantitative rtPCR; assay type: in vivo, rat; conditions: vehicle = 1.00, ± SEM
Text: Abundance of gene expression could be determined relative to an untreated sample for each gene using the comparative Ct method as described in the procedure published by K. J. Livak and T. D. Schmittgen (Analysis of relative gene expression data using real-time quantitative PCR and the 2^ΔΔCT method. Methods, 2001, 25, 402-408).
Changes in the expression of peripheral and central nervous system gene makers (including myelin markers such as PMP22, P0, and Myelin Basic Protein) were followed after proteasome inhibitor administration, and a reduction of PMP22 expression was observed. Changes in PMP22 gene expression were correlated with measures of neurological function that are used to measure the CMT1A neuropathy. These measures of neurological function included measures of motor coordination, nerve conduction velocity, and histology of femoral motor and sensory nerves. Relevant measures of CMT1A function have been outlined by J. C. Noreel and co-authors (Behavioural profiling of a murine Charcot-Marie-Tooth disease type 1A model. Eur. J. Neurosci. 2001, 13, 1625-1634).
Bortezomib was administered subcutaneously (s.c.) at a dose equivalent to 0.1 mg substance/kg of body weight, using an injection concentration of 2.5 mg of substance/ml. RNA was purified from sciatic nerve at 7 d post-injection. […] Errors indicate the standard error of the mean (SEM).
Oprozomib (ONX-0912) was administered at the indicated doses by oral gavage and RNA was purified from sciatic nerve at 7 d. […] Errors indicate SEM. Vehicle was 10% EtOH, 10% Tween80, 80% 10 mM citrate buffer pH=3.5 (see; Zhou, H-J. et al., Design and Synthesis of an Orally Bioavailable and Selective Peptide Epoxyketone Proteasome Inhibitor (PR-047). J. Med. Chem., 2009, 52, 3028-3038).

PMP22 [2] = experiment: PMP22 expression in S16 Schwann cells, quantitative rtPCR; assay type: cell-based; conditions: for PMP22 P1 relative level of expression / PMP22 P2 relative level of expression: 24 h, S16 Schwann cells, relative to untreated control, normalized to 18S rRNA, ± S.D.; for RQ (Relative Quantity) PMP22-P1 / RQ (Relative Quantity) PMP22-P2: normalized to beta-actin, untreated = 1.000
Method: To determine if proteasome inhibitors affect endogenous PMP22 expression, quantitative rtPCR was utilized to measure the abundance of PMP22 mRNA transcript in the S16 Schwann cells, which were plated in 6 well plates and treated with each compound at the indicated concentrations. After 24 h., the cells were harvested to purify RNA, 1 μg of which was converted into cDNA. Quantitative rtPCR was performed in either SYBR green-based reactions or Taqman-based customized 384-well micro fluidic arrays using a ViiA7 system or StepOne Plus (Applied Biosystems). Abundance of gene expression was first normalized to beta-actin (ActB, NM_031144.2) or 18 S rRNA, which served as an endogenous loading control across samples, and then determined relative to the untreated sample for each gene using the comparative Ct method described by K. J. Livak and T. D. Schmittgen (Analysis of relative gene expression data using real-time quantitative PCR and the 2^ΔΔCT method. Methods, 2001, 25, 402-408).
S16 Schwann cells were treated with indicated proteasome inhibitors for 24 h. RNA was prepared and analyzed by quantitative rtPCR using promoter specific primers for PMP22 (labeled P1 and P2). Relative levels of expression are shown relative to untreated control cells. Values are normalized to 18S rRNA. Errors reflect the standard deviation (S.D.) of technical duplicates.
RQ=Relative Quantity, normalized to beta-actin

human PMP22 gene = experiment: Orthogonal reporter assays (firefly luciferase or β-lactamase coupled to the intronic regulatory element of the human PMP22 gene); assay type: cell-based; conditions: targeted screening, firefly luciferase and β-lactamase reporters
Text: A cross-validating pair of orthogonal reporter assays, which employ either firefly luciferase or β-lactamase coupled to the intronic regulatory element of the human PMP22 gene, were used to measure CMT1A PMP22 overexpression as a means of identifying transcriptional inhibitors with therapeutic value toward CMT1A. […] A description of assays and methods used to identify compounds has been provided by S-W Jang and co-authors (Identification of drug modulators targeting gene-dosage disease. ACS Chem Biol., 2012, 7, 1205-1213).

PMP22 [3] = experiment: Effect on PMP22 expression in mice after a single s.c. injection; assay type: in vivo; conditions: 10 mg/kg, n = 4, vehicle printed 0.739 ± 0.07
Text: MLN9708. Anatomical areas of subcutaneous administration could include the right or left thigh, or abdomen. The same anatomical area can be used for repeated administration. However, injections are typically to be rotated between sites (see; Fledrich, R. M. et al., Murine therapeutic models for Charcot-Marie-Tooth (CMT) disease. British Medical Bulletin, 2012, 102, 89-113).

[4] = 10 mg/kg oral gavage, sciatic nerve at 7 d, n = 7
[5] = 30 mg/kg oral gavage, sciatic nerve at 7 d, n = 7
[6] = 0.1 mg/kg s.c., sciatic nerve, 7 d post-injection, n = 9

## COC[C@H](NC(=O)c1cnc(C)s1)C(=O)N[C@@H](COC)C(=O)N[C@@H](Cc1ccccc1)C(=O)[C@@]1(C)CO1 [Oprozomib, O-methyl-N-[(2-methyl-5-thiazolyl)carbonyl]-L-seryl-O-methyl-N-[(1S)-2-[(2R)-2-methyl-2-oxiranyl]-2-oxo-1-(phenylmethyl)ethyl]-L-serinamide]
PMP22 [1]; [4]
  PMP22 P1 relative level: 0.46 ± 0.15
  PMP22 P2 relative level: 3.1 ± 0.9
  Total PMP22 relative level: 0.62 ± 0.17
PMP22 [1]; [5]
  PMP22 P1 relative level: 0.46 ± 0.1
  PMP22 P2 relative level: 1.87 ± 0.77
  Total PMP22 relative level: 0.61 ± 0.07

## CC(C)C[C@H](NC(=O)CNC(=O)c1cc(Cl)ccc1Cl)B(O)O [MLN2238, (R)-1-(2-(2,5-dichlorobenzamido)acetamido)-3-methylbutylboronic acid]
PMP22 [2]; 25 nM
  PMP22 P1 relative level of expression: 1.177 ± 0.42
  PMP22 P2 relative level of expression: 0.837 ± 0.041
PMP22 [2]; 50 nM
  PMP22 P1 relative level of expression: 0.826 ± 0.225
  PMP22 P2 relative level of expression: 0.865 ± 0.141
PMP22 [2]; 100 nM
  PMP22 P1 relative level of expression: 0.005 ± 0.0005
  PMP22 P2 relative level of expression: 0.020 ± 0.005
PMP22 [2]; 1 μM
  PMP22 P1 relative level of expression: 0.003 ± 0.0007
  PMP22 P2 relative level of expression: 0.022 ± 0.0026
PMP22 [2]; 10 μM
  PMP22 P1 relative level of expression: 0.007 ± 0.00003
  PMP22 P2 relative level of expression: 0.018 ± 0.0123

## CC(C)C[C@H](NC(=O)[C@H](Cc1ccccc1)NC(=O)c1cnccn1)B(O)O [Bortezomib, [(1R)-3-methyl-1-({(2S)-3-phenyl-2-[(pyrazin-2-ylcarbonyl)amino]propanoyl}amino)butyl]boronic acid]
PMP22 [2]; 10 nM
  RQ (Relative Quantity) PMP22-P1: 0.517
  RQ (Relative Quantity) PMP22-P2: 0.809
PMP22 [2]; 100 nM
  RQ (Relative Quantity) PMP22-P1: 0.032
  RQ (Relative Quantity) PMP22-P2: 0.153
PMP22 [2]; 1 μM
  RQ (Relative Quantity) PMP22-P1: 0.041
  RQ (Relative Quantity) PMP22-P2: 0.232
PMP22 [2]; 10 μM
  RQ (Relative Quantity) PMP22-P1: 0.077
  RQ (Relative Quantity) PMP22-P2: 0.285
Human PMP22 gene
  Effect on CMT1A PMP22 overexpression in reporter assays: selectively reducing CMT1A expression
PMP22 [1]; [6]
  PMP22 P1 relative level: 0.675 ± 0.17
  PMP22 P2 relative level: 0.4 ± 0.07
  Total PMP22 relative level: 0.3 ± 0.05

## CC(C)C[C@H](NC(=O)CNC(=O)c1cc(Cl)ccc1Cl)B1OC(=O)CC(CC(=O)O)(C(=O)O)O1 (stereo partly drawn) [MLN9708, 4-(carboxymethyl)-2-((R)-1-(2-(2,5-dichlorobenzamido)acetamido)-3-methylbutyl)-6-oxo-1,3,2-dioxaborinane-4-carboxylic acid]
PMP22 [3]
  Total PMP22 relative level: 1.00 ± 0.09

## CC(C)C[C@H](NC(=O)[C@H](CCc1ccccc1)NC(=O)CN1CCOCC1)C(=O)N[C@@H](Cc1ccccc1)C(=O)N[C@@H](CC(C)C)C(=O)[C@@]1(C)CO1 [Carfilzomib, (S)-4-nethyl-N-((S)-1-(((S)-4-methyl-1-((R)-2-methyloxiran-2-yl)-1-oxopentan-2-yl)amino)-1-oxo-3-phenylpropan-2-yl)-2-((S)-2-(2-morpholinoacetamido)-4-phenylbutanamido)pentanamide]
PMP22 [2]; 1 nM
  PMP22 P1 relative level of expression: 0.003 ± 0.0004
  PMP22 P2 relative level of expression: 0.012 ± 0.004
PMP22 [2]; 2.5 nM
  PMP22 P1 relative level of expression: 0.006 ± 0.0005
  PMP22 P2 relative level of expression: 0.027 ± 0.0037
PMP22 [2]; 5 nM
  PMP22 P1 relative level of expression: 0.006 ± 0.0019
  PMP22 P2 relative level of expression: 0.037 ± 0.00026
PMP22 [2]; 10 nM
  PMP22 P1 relative level of expression: 0.014 ± 0.0007
  PMP22 P2 relative level of expression: 0.046 ± 0.0022
PMP22 [2]; 100 nM
  PMP22 P1 relative level of expression: 0.009 ± 0.0055
  PMP22 P2 relative level of expression: 0.027 ± 0.017
PMP22 [2]; 1 μM
  PMP22 P1 relative level of expression: 0.008 ± 0.0024
  PMP22 P2 relative level of expression: 0.036 ± 0.0049
